In paper PMC3822589 (Journal of Cellular and Molecular Medicine, 2013):
Entries after “also recorded” stand apart in the source; their conditions may differ. Read-outs that look alike come from different tables or passages of the source.

What was measured:
HEL cells [1] = test: Cell proliferation assay; assay type: cell-based, human; details: for effect on proliferation of HEL cells: 0.3 or 1 μM; for IC50: read-out: IC50 values, Proliferation assay
[2] = test system: Phospho-STAT5 (P-STAT5) levels in HEL cells (Jak2V617F); test: Western blot of phospho-STAT5 in HEL cells; assay type: cell-based, human; details: for effect on phosphorylation of STAT5 (Western blot): 0.5, 1 or 5 μM, 3 hrs; for IC50 values, WB (P-STAT5) / IC50: mean ± SD
[3] = test system: P-STAT5 in UKE-1 cells (Jak2V617F); test: Western blot of phospho-STAT5 in UKE-1 cells; assay type: cell-based; details: 2.5 μM, 3 hrs
[4] = test system: Jak2V617F phosphorylation (P-Jak2) in HEL cells; test: Western blot of phospho-Jak2 in HEL cells; assay type: cell-based, human; details: 0.5, 1 or 5 μM, 3 hrs
[5] = test system: P-STAT5 in BA/F3-EpoR-Jak2V617F cells; test: Western blot of phospho-STAT5 in BA/F3-EpoR-Jak2V617F cells; assay type: cell-based, murine; details: 2.5 μM, 3 hrs
HEL cells [6] = test: Cell cycle analysis; assay type: cell-based, human; details: 500 nM CEP701, VX680, TG101209 or 100 nM AT9283
HEL cells [7] = test: Cell size determination; assay type: cell-based, human; details: 600 nM CEP701, TG101209, VX680 or 100 nM AT9283; 24, 48 or 72 hrs
[8] = test system: phosphorylation of histone H3 (target of Aurora kinase B) in HEL cells; test: Quantitative Western blot of phospho-histone H3 in HEL cells; assay type: cell-based, human; details: HEL cells blocked with Nocodazole; 0.25, 0.5 or 1 μM; 3 hrs
[9] = test system: Jak2V617F in γ2A-FRT-TI-Jak2V617F/STAT3-YFP cells; test: STAT3-YFP translocation assay; assay type: cell-based; details: for IC50: read-out: IC50 values, STAT3-YFP translocation assay
[10] = test system: CD34+ cells of Jak2V617F-positive MPN patients; test: Colony forming cell; assay type: cell-based, human; details: single inhibitor; 12–16 days of culture
[11] = test system: 2C4, HCT-116 and K-562 cells; test: Nuclei size in cell lines not expressing Jak2V617F; assay type: cell-based; details: 500 nM; 48 hrs
[12] = test system: Jak2V617F in HEK-V617F-STAT-Rep. cells; test: pSTAT-ZsGreen reporter gene assay; assay type: cell-based; details: for IC50: read-out: IC50 values, STAT-reporter gene assay
[13] = test system: phosphorylation of histone H3 in UKE-1 cells; test: Quantitative Western blot of phospho-histone H3 in UKE-1 cells; assay type: cell-based; details: UKE-1 cells blocked with Nocodazole; 0.25, 0.5 or 1 μM; 3 hrs
[14] = test system: phosphorylation of histone H3 in BA/F3-EpoR-Jak2V617F cells; test: Quantitative Western blot of phospho-histone H3 in BA/F3-EpoR-Jak2V617F cells; assay type: cell-based, murine; details: BA/F3-EpoR-Jak2V617F cells blocked with Nocodazole; 0.25, 0.5 or 1 μM; 3 hrs
[15] = test system: γ2A-FRT-TI-Jak2V617F/STAT3-YFP cells; test: Nuclei size by confocal imaging and Cell Profiler; assay type: cell-based; details: 24 hrs; Cell Profiler
[16] = Homo sapiens, HEL, read-out: IC50 values, WB (P-STAT5), HEL cells
[17] = read-out: IC50 values, WB (P-STAT5), HEL cells
[18] = HEK-V617F-STAT-Rep. cells, 24 hrs, mean ± SD
[19] = γ2A-FRT-TI-Jak2V617F/STAT3-YFP cells, mean ± SD

Row | Structure (SMILES) | effect on proliferation of HEL cells (HEL cells [1]; 72 hrs) | effect on phosphorylation of STAT5 (Western blot) ([2]; HEL cells) | IC50 values, WB (P-STAT5) ([2]; HEL cells) | effect on phosphorylation of STAT5 (Western blot) [3] | effect on phosphorylation of Jak2 [4] | effect on phosphorylation of STAT5 (Western blot) [5] | effect on erythroid and myeloid colony growth [10] | also measured
1 | N#C/C(=C/c1ccc(O)c(O)c1)C(=O)NCc1ccccc1 [AG490] | neither affected cell growth | did not inhibit the phosphorylation of STAT5 | No inhibition | did not inhibit STAT5 phosphorylation | not observed | did not inhibit STAT5 phosphorylation |  | 
2 | O=C(Nc1c[nH]nc1-c1nc2ccc(CN3CCOCC3)cc2[nH]1)NC1CC1 [AT9283] |  | strongly reduced phosphorylation of STAT5 |  | efficiently decreased | increased phosphorylation of Jak2 | efficiently decreased |  | effect on cell cycle profile (HEL cells [6]): emergence of an 8n peak; effect on HEL cell size (HEL cells [7]): increased in size; effect on histone H3 phosphorylation [8]: Reduction in histone H3 phosphorylation; IC50 [9]: 74 ± 38 nM
3 | CCN(CCCOc1ccc2c(Nc3cc(CC(=O)Nc4cccc(F)c4)n[nH]3)ncnc2c1)CCOP(=O)(O)O [AZD1152] |  |  |  |  |  |  | same behaviour | 
4 | C[C@]12O[C@H](C[C@]1(O)CO)n1c3ccccc3c3c4c(c5c6ccccc6n2c5c31)CNC4=O [CEP701] | reduced proliferation of HEL cells very effectively | strongly reduced phosphorylation of STAT5 |  | efficiently decreased | increased phosphorylation of Jak2 | efficiently decreased | erythroid and myeloid colonies were equally well suppressed | IC50 (HEL cells [1]; Homo sapiens, HEL, 72 h): 81 ± 20 nM; IC50 [2, 16]: ~100 nM; IC50 [2, 17]: 97 ± 39 nM; effect on cell cycle profile (HEL cells [6]): emergence of an 8n peak; increase in nuclei size in cell lines not expressing Jak2V617F [11]: this effect was also clearly visible; IC50 ([12]; 24 h): 111 ± 22 nM; effect on HEL cell size (HEL cells [7]): increased in size; effect on histone H3 phosphorylation [8]: Reduction in histone H3 phosphorylation; effect on histone H3 phosphorylation [13]: decline of histone H3 phosphorylation; effect on histone H3 phosphorylation [14]: decline of histone H3 phosphorylation; IC50 [9]: 45 ± 15 nM
5 | CO[C@@H](C(=O)N1Cc2n[nH]c(NC(=O)c3ccc(N4CCN(C)CC4)cc3)c2C1)c1ccccc1 [Danusertib] |  |  |  |  |  |  | same behaviour | 
6 | CC(C)(C)c1nc2c3cc[nH]c(=O)c3c3cc(F)ccc3c2[nH]1 [JI1] | reduced proliferation of HEL cells very effectively | strongly reduced phosphorylation of STAT5 |  | efficiently decreased | increased phosphorylation of Jak2 | efficiently decreased |  | IC50 (HEL cells [1]; HEL cells, 72 hrs, mean ± SD): 506 ± 18 nM; IC50 [2, 17]: 133 ± 62 nM; IC50 [12, 18]: 291 ± 40 nM; IC50 [9, 19]: 197 ± 73 nM; concentration at which nuclei size increases [15]: did not have this effect
7 | Nc1nc(Nc2ccc(S(N)(=O)=O)cc2)nn1C(=O)c1c(F)cccc1F [JNJ7706621] | neither affected cell growth | did not inhibit the phosphorylation of STAT5 | No inhibition |  | not observed |  |  | 
8 | C/C(O)=C(\C#N)C(=O)Nc1cc(Br)ccc1Br [LFM-A13] | neither affected cell growth | did not inhibit the phosphorylation of STAT5 | No inhibition |  | not observed |  |  | 
9 | O=C(Nc1cccc(Cl)c1)Nc1ncc(CCNc2ncnc3ccsc23)s1 [SNS314] |  |  |  |  |  |  | same behaviour | 
10 | CCN(CC)CCNC(=O)c1c(C)[nH]c(/C=C2\C(=O)Nc3ccc(F)cc32)c1C [Sunitinib] | moderate effect | did not inhibit the phosphorylation of STAT5 | No inhibition | did not inhibit STAT5 phosphorylation | not observed | did not inhibit STAT5 phosphorylation |  | 
11 | Cc1cnc(Nc2ccc(N3CCN(C)CC3)cc2)nc1Nc1cccc(S(=O)(=O)NC(C)(C)C)c1 [TG101209] | reduced proliferation of HEL cells very effectively | strongly reduced phosphorylation of STAT5 |  | efficiently decreased | increased phosphorylation of Jak2 | efficiently decreased |  | IC50 (HEL cells [1]; HEL cells, 72 hrs, mean ± SD): 243 ± 41 nM; IC50 [2, 17]: 92 ± 18 nM; effect on cell cycle profile (HEL cells [6]): reduction in the G2/M peak intensity; IC50 [12, 18]: 156 ± 10 nM; effect on HEL cell size (HEL cells [7]): not observed; effect on histone H3 phosphorylation [8]: only very little effect; IC50 [9, 19]: 125 ± 45 nM; concentration at which nuclei size increases [15]: did not show this effect; also recorded: did not have this effect
12 | Cc1cnc(Nc2ccc(OCCN3CCCC3)cc2)nc1Nc1cccc(S(=O)(=O)NC(C)(C)C)c1 [TG101348] | showed the same effects but were less efficient | showed the same effects but were less efficient |  | efficiently decreased | increased phosphorylation of Jak2 | efficiently decreased |  | IC50 (HEL cells [1]; Homo sapiens, HEL, 72 h): 725 ± 85 nM; IC50 [2, 16]: ~600 nM; IC50 [2, 17]: 636 ± 203 nM; IC50 ([12]; 24 h): 850 ± 101 nM; IC50 [9]: 385 ± 61 nM; concentration at which nuclei size increases [15]: did not have this effect
13 | Cc1cc(Nc2cc(N3CCN(C)CC3)nc(Sc3ccc(NC(=O)C4CC4)cc3)n2)[nH]n1 [VX680] | very efficiently inhibited HEL cell growth | did not inhibit the phosphorylation of STAT5 | No inhibition | did not inhibit STAT5 phosphorylation | not observed | did not inhibit STAT5 phosphorylation | reduced the numbers of myeloid colonies very efficiently but had less effect on erythroid colonies | IC50 (HEL cells [1]; Homo sapiens, HEL, 72 h): 158 ± 26 nM; effect on cell cycle profile (HEL cells [6]): emergence of an 8n peak; increase in nuclei size in cell lines not expressing Jak2V617F [11]: this effect was also clearly visible; IC50 values, STAT-reporter gene assay [12, 18]: No inhibition; effect on HEL cell size (HEL cells [7]): increased in size; effect on histone H3 phosphorylation [8]: Reduction in histone H3 phosphorylation; effect on histone H3 phosphorylation [13]: decline of histone H3 phosphorylation; effect on histone H3 phosphorylation [14]: decline of histone H3 phosphorylation; IC50 values, STAT3-YFP translocation assay [9, 19]: No inhibition
14 | C[C@H](NC(=O)/C(C#N)=C/c1cccc(Br)n1)c1ccccc1 [WP1066] | moderate effect | did not inhibit the phosphorylation of STAT5 | No inhibition | did not inhibit STAT5 phosphorylation | not observed | did not inhibit STAT5 phosphorylation |  | IC50 values, STAT-reporter gene assay [12, 18]: No inhibition
